# Results published in patent US6177438A, “Morphinan derivatives and pharmaceutical use thereof” (priority 1993, dated 2001).
# Counter-ions that a name gives are not always drawn.
# Tested on: acetic acid-induced writhing in ddy mice
# Test: animal or person
# Assay type: in vivo, 5 week old ddy mice
# Conditions: Mus musculus, sc, s.c. 15 minutes before acetic acid, read-out: ED50
# Experimental: 5 week old ddy mice were used in this test. After intraperitoneal administration of 0.1 ml of 0.6% aqueous acetic acid per 10 g of body weight, the number of writhing reactions that occurred in 10 minutes starting 10 minutes after administration was evaluated for the indicator. The test drug was administered subcutaneously into the backs of the animals 15 minutes before administration of acetic acid.
row,SMILES,ED50 [mg/kg]
1,"COc1ccc2c3c1O[C@H]1[C@H](N(C)C(=O)/C=C/c4ccoc4)CC[C@@]4(O)[C@@H](C2)N(CC2CC2)CC[C@]314 [Compound 217, 17-cyclopropylmethyl-4,5α-epoxy-14β-hydroxy-3-methoxy-6β-[N-methyl-trans-3-(3-furan)acrylamido]morphinan hydrochloride]",0.018
2,"CN(C(=O)/C=C/c1ccccc1C(F)(F)F)[C@@H]1CC[C@@]2(O)[C@H]3Cc4ccc(O)c5c4[C@@]2(CCN3CC2CC2)[C@H]1O5 [Compound 72, 17-cyclopropylmethyl-3,14β-dihydroxy-4,5α-epoxy-6β-(N-methyl-2-trifluoromethylcinnamamido)morphinan.cndot.hydrochloride]",0.18
3,"CN(C(=O)C#Cc1ccco1)[C@@H]1CC[C@@]2(O)[C@H]3Cc4ccc(O)c5c4[C@@]2(CCN3CC2CC2)[C@H]1O5.Cl [Compound 175, 17-cyclopropylmethyl-3,14β-dihydroxy-4,5α-epoxy-6β-[N-methyl-3-(2-furyl)propiolamido]morphinan hydrochloride]",0.018
4,"CN(C(=O)/C=C\c1ccoc1)[C@@H]1CC[C@@]2(O)[C@H]3Cc4ccc(O)c5c4[C@@]2(CCN3CC2CC2)[C@H]1O5.O=C(O)C(O)C(O)C(=O)O (relative stereo) [Compound 174, 17-cyclopropylmethyl-3,14β-dihydroxy-4,5α-epoxy-6β-[N-methyl-cis-3-(3-furyl)acrylamido]morphinan tartrate]",0.16
5,"CN(C(=O)Cc1cccc(N=C=S)c1)[C@H]1CC[C@@]2(O)[C@H]3Cc4ccc(O)c5c4[C@@]2(CCN3CC2CC2)[C@H]1O5 [Compound 149, 17-cyclopropylmethyl-3,14β-dihydroxy-4,5α-epoxy-6α-(N-methyl-3-isothiocyanatophenylacetamido)morphinanan.cndot.methanesulfonate]",0.013
6,"COCCOC(=O)N(C)[C@@H]1CC[C@@]2(O)[C@H]3Cc4ccc(O)c5c4[C@@]2(CCN3CC2CC2)[C@H]1O5 [Compound 67, 17-cyclopropylmethyl-3,14β-dihydroxy-4,5α-epoxy-6β-(N-methyl-2-methoxyethoxycarbamido)morphinan.cndot.tartrate]",0.36
7,"Br.CN(C(=O)/C=C/c1cc(Br)cs1)[C@@H]1CC[C@@]2(O)[C@H]3Cc4ccc(O)c5c4[C@@]2(CCN3CC2CC2)[C@H]1O5 (relative stereo) [Compound 157, 17-cyclopropylmethyl-3,14β-dihydroxy-4,5α-epoxy-6β-[N-methyl-trans-3-(4-bromo-2-thienyl)acrylamido]morphinan hydrobromide]",0.003
8,"CN(C(=O)CCC1CCCCC1)[C@H]1CC[C@@]2(O)[C@H]3Cc4ccc(O)c5c4[C@@]2(CCN3CC2CC2)[C@H]1O5 [Compound 94, 17-cyclopropylmethyl-3,14β-dihydroxy-4,5α-epoxy-6α-(N-methyl-3-cyclohexylpropionamido)morphinan.cndot.hydrochloride]",0.013
9,"CN(C(=O)CCC1CCCC1)[C@H]1CC[C@@]2(O)[C@H]3Cc4ccc(O)c5c4[C@@]2(CCN3CC2CC2)[C@H]1O5 [Compound 48, 17-cyclopropylmethyl-4,5α-epoxy-3,14β-dihydroxy-6α-(N-methyl-3-cyclopentylpropionamido)morphinan.cndot.tartrate]",0.019
10,"COc1ccc(C#CC(=O)N(C)[C@@H]2CC[C@@]3(O)[C@H]4Cc5ccc(O)c6c5[C@@]3(CCN4CC3CC3)[C@H]2O6)cc1.Cl [Compound 176, 17-cyclopropylmethyl-3,14β-dihydroxy-4,5α-epoxy-6β-[N-methyl-3-(4-methoxyphenyl)propiolamido]morphinan hydrochloride]",0.11
11,"CN(C(=O)NCc1ccccc1)[C@H]1CC[C@@]2(O)[C@H]3Cc4ccc(O)c5c4[C@@]2(CCN3CC2CC2)[C@H]1O5 [Compound 132, 17-Cyclopropylmethyl-3,14β-dihydroxy-4,5α-epoxy-6α-(N-methyl-N'-benzylureido)morphinan.cndot.tartrate]",0.073
12,"COc1ccc2c3c1O[C@H]1[C@@H](N(C)C(=O)Cc4ccc(Cl)c(Cl)c4)CC[C@@]4(O)[C@@H](C2)N(CC2CC2)CC[C@]314 [Compound 142, 17-cyclopropylmethyl-4,5α-epoxy-14β-hydroxy-3-methoxy-6α-(N-methyl-3,4-dichlorophenylacetamido)morphinan.cndot.tartrate]",0.78
13,"CN(C(=O)Cc1cccc(Br)c1)[C@H]1CC[C@@]2(O)[C@H]3Cc4ccc(O)c5c4[C@@]2(CCN3CC2CC2)[C@H]1O5 [Compound 26, 17-cyclopropylmethyl-3,14β-dihydroxy-4,5α-epoxy-6α-(N-methyl-3-bromophenylacetamido)morphinan.cndot.hydrobromate]",0.099
14,"CN(C(=O)C#Cc1ccoc1)[C@@H]1CC[C@@]2(O)[C@H]3Cc4ccc(O)c5c4[C@@]2(CCN3CC2CC2)[C@H]1O5.O=C(O)C(O)C(O)C(=O)O [Compound 177, 17-cyclopropylmethyl-3,14β-dihydroxy-4,5α-epoxy-6β-[N-methyl-(3-furyl)propiolamido]morphinan tartrate]",0.0096
15,"CCN(C(=O)Cc1ccc(Cl)c(Cl)c1)[C@@H]1CC[C@@]2(O)[C@H]3Cc4ccc(O)c5c4[C@@]2(CCN3CC2CC2)[C@H]1O5 [Compound 54, 17-cyclopropylmethyl-4,5α-epoxy-3,14β-dihydroxy-6β-(N-ethyl-3,4-dichlorophenylacetoamido)morphinan.cndot.hydrochloride]",0.72
16,"Cc1ccc(/C=C/C(=O)N(C)[C@@H]2CC[C@@]3(O)[C@H]4Cc5ccc(O)c6c5[C@@]3(CCN4CC3CC3)[C@H]2O6)cc1 [Compound 155, 17-cyclopropylmethyl-3,14β-dihydroxy-4,5α-epoxy-6β-(N-methyl-4-methylcinnamamido)morphinan hydrochloride]",0.012
17,"CN(C(=O)OCc1ccccc1)[C@H]1CC[C@@]2(O)[C@H]3Cc4cccc5c4[C@@]2(CCN3CC2CC2)[C@H]1O5 [Compound 74, 17-cyclopropylmethyl-14β-hydroxy-4,5α-epoxy-6α-(N-methylbenzyloxycarbamido)morphinan.cndot.phosphate]",0.78
18,"CN(C(=O)COc1c(Cl)cc(Cl)cc1Cl)[C@@H]1CC[C@@]2(O)[C@H]3Cc4ccc(O)c5c4[C@@]2(CCN3CC2CC2)[C@H]1O5.Cl [Compound 199, 17-cyclopropylmethyl-3,14β-dihydroxy-4,5α-epoxy-6β-(N-methyl-2,4,6-trichlorophenoxyacetamido)morphinan hydrochloride]",0.017
19,"CN(C(=S)NCc1ccccc1)[C@H]1CC[C@@]2(O)[C@H]3Cc4ccc(O)c5c4[C@@]2(CCN3CC2CC2)[C@H]1O5 [Compound 133, 17-cyclopropylmethyl-3,14β-dihydroxy-4,5α-epoxy-6α-(N-methyl-N'-benzylthioureido)morphinan.cndot.tartrate]",0.044
20,"COc1ccc(C#CC(=O)N(C)[C@H]2CC[C@@]3(O)[C@H]4Cc5ccc(O)c6c5[C@@]3(CCN4CC3CC3)[C@H]2O6)cc1.O=C(O)C(O)C(O)C(=O)O [Compound 187, 17-cyclopropylmethyl-3,14β-dihydroxy-4,5α-epoxy-6α-[N-methyl-3-(4-methoxyphenyl)propiolamido]morphinan tartrate]",0.026
